Data: patent publication US10800741B2 (ANCUREALL PHARMACEUTICAL (SHANGHAI) CO., LTD., priority 2017, dated 2020)
Read-outs that look alike come from different tables or passages of the source.

Key:
Type in all cases: cell-based, Human
KATO III (FGFR2 amp) = assay: In vitro growth inhibition of KATO III tumor cells (MTT/CCK8); settings: in vitro growth inhibition (or induction of apoptosis), cells cultured 3 to 5 days, MTT (CCK8), read-out: IC50 KATO III (FGFR2 amp)
Kasumi-1 (KIT N822K) = assay: In vitro growth inhibition of Kasumi-1 tumor cells (MTT/CCK8); settings: in vitro growth inhibition (or induction of apoptosis), cells cultured 3 to 5 days, MTT (CCK8), read-out: IC50 Kasumi-1 (KIT N822K)
H1581 (FGFR1 amp) = assay: In vitro growth inhibition of H1581 tumor cells (MTT/CCK8); settings: in vitro growth inhibition (or induction of apoptosis), cells cultured 3 to 5 days, MTT (CCK8), read-out: IC50 H1581 (FGFR1 amp)
MOLM-13 (FLT3-ITD) = assay: In vitro growth inhibition of MOLM-13 tumor cells (MTT/CCK8); settings: in vitro growth inhibition (or induction of apoptosis), cells cultured 3 to 5 days, MTT (CCK8), read-out: IC50 MOLM-13 (FLT3-ITD)
Hep3B2 (FGFR3/4+++) = assay: In vitro growth inhibition of Hep3B2 tumor cells (MTT/CCK8); settings: in vitro growth inhibition (or induction of apoptosis), cells cultured 3 to 5 days, MTT (CCK8), read-out: IC50 Hep3B2 (FGFR3/4+++)
H1703 (PDGFRa amp) = assay: In vitro growth inhibition of H1703 tumor cells (MTT/CCK8); settings: in vitro growth inhibition (or induction of apoptosis), cells cultured 3 to 5 days, MTT (CCK8), read-out: IC50 H1703 (PDGFRa amp)
KCL-22 (BCR-ABL) = assay: In vitro growth inhibition of KCL-22 tumor cells (MTT/CCK8); settings: in vitro growth inhibition (or induction of apoptosis), cells cultured 3 to 5 days, MTT (CCK8), read-out: IC50 KCL-22 (BCR-ABL)
Karpas 299 (NPM-ALK) = assay: In vitro growth inhibition of Karpas 299 tumor cells (MTT/CCK8); settings: in vitro growth inhibition (or induction of apoptosis), cells cultured 3 to 5 days, MTT (CCK8), read-out: IC50 Karpas 299 (NPM-ALK)

Row | SMILES | IC50 (KATO III (FGFR2 amp); Homo sapiens, KATO III) [nM] | IC50 (Kasumi-1 (KIT N822K); Homo sapiens, Kasumi 1) [nM] | IC50 (H1581 (FGFR1 amp); Homo sapiens, NCI-H1581) [nM] | IC50 (MOLM-13 (FLT3-ITD); Homo sapiens, MOLM-13) [nM] | IC50 (Hep3B2 (FGFR3/4+++); Homo sapiens, Hep3B) [nM] | IC50 (H1703 (PDGFRa amp); Homo sapiens, NCI-H1703) [nM] | IC50 (KCL-22 (BCR-ABL); Homo sapiens, KCL-22) [nM] | IC50 (Karpas 299 (NPM-ALK); Homo sapiens, KARPAS-299) [nM] | IC50 (KATO III (FGFR2 amp)) [nM] | IC50 (Kasumi-1 (KIT N822K)) [nM] | IC50 (H1581 (FGFR1 amp)) [nM] | IC50 (MOLM-13 (FLT3-ITD)) [nM] | IC50 (Hep3B2 (FGFR3/4+++)) [nM] | IC50 (H1703 (PDGFRa amp)) [nM] | IC50 (KCL-22 (BCR-ABL)) [nM] | IC50 (Karpas 299 (NPM-ALK)) [nM]
1 | COc1cc2nccc(Nc3ccc(NC(=O)Nc4cc(C(C)(C)C)on4)c(Cl)c3)c2cc1C(N)=O [Compound 77, 4-{4-[3-(5-tert-butyl-isoxazol-3-yl)-ureido]-3-chlorophenylamino}-7-methoxyquinolin-6-carboxamide] | 17 | 518 | 243 | 42.5 | 494 | 212 | 294 | > 1000 | – | – | – | – | – | – | – | –
2 | CCN1CCN(c2ccc(Nc3cc(NC(=O)Nc4ccc(Oc5ccnc6cc(OC)c(C(N)=O)cc56)c(Cl)c4Cl)ncn3)cc2)CC1 [Compound 71] | > 1000 | > 1000 | > 1000 | > 1000 | > 1000 | > 1000 | ≥ 1000 | > 1000 | – | – | – | – | – | – | – | –
3 | CCC(=O)n1nc(C(C)(C)C)cc1NC(=O)Nc1ccc(Oc2ccnc3cc(OC)c(C(N)=O)cc23)cc1Cl [Compound 29, 4-{4-[3-(5-tert-butyl-2-propanoyl-2H-pyrazol-3-yl)-ureido]-3-chloro-phenoxy}-7-methoxyquinolin-6-carboxamide] | 1.48 | 66.8 | 26.3 | 11.5 | 29.4 | 18 | 29.4 | 626 | – | – | – | – | – | – | – | –
4 | COc1cc2nccc(Oc3ccc(NC(=O)Nc4cc(C(C)(C)C)n[nH]4)c(Cl)c3)c2cc1C(=O)N(C)C [Compound 61] | 18.4 | 571 | 133 | 61.4 | 368 | 75.8 | 599 | 606 | – | – | – | – | – | – | – | –
5 | CC(C)Oc1cc2nccc(Oc3ccc(NC(=O)Nc4cc(C(C)(C)C)n[nH]4)c(Cl)c3)c2cc1C(N)=O [Compound 43, 4-{4-[3-(5-tert-butyl-2H-pyrazol-3-yl)-ureido]-3-chloro-phenoxy}-7-isopropoxy-quinolin-6-carboxamide] | 5.69 | 149 | 38.5 | 51.5 | 64.3 | 37.2 | 102 | 558 | – | – | – | – | – | – | – | –
6 | CC(C)(C)c1cc(NC(=O)Nc2ccc(Oc3ccnc4cc(OCCN5CCOCC5)c(C(N)=O)cc34)cc2Cl)[nH]n1 [Compound 81, 4-{4-[3-(5-tert-butyl-2H-pyrazol-3-yl)-ureido]-3-chloro-phenoxy}-7-(2-morpholin-4-yl-ethoxy) pyridine-6-carboxamide] | – | – | – | – | – | – | – | – | 0.31 | 26.7 | 4.94 | 11.9 | 44.7 | 11.3 | 34.9 | 466
7 | COCCNC(=O)c1cc2c(Oc3ccc(NC(=O)Nc4cc(C(C)(C)C)on4)c(Cl)c3)ccnc2cc1OC [Compound 17, 4-{4-[3-(5-tert-butyl-isoxazol-3-yl)-ureido]-3-chloro-phenoxy}-7-methoxyquinolin-6-carboxylic acid (2-methoxy-ethyl)-amide] | 3.9 | 71.4 | 31.4 | 7.72 | 84.9 | 168 | 23.1 | 770 | – | – | – | – | – | – | – | –
8 | CNC(=O)c1cc2c(Oc3ccc(NC(=O)Nc4cc(C(C)(C)C)n[nH]4)c(C)c3)ccnc2cc1OC [Compound 49, 4-{4-[3-(5-tert-butyl-2H-pyrazol-3-yl)-ureido]-3-methyl-phenoxy}-7-methoxyquinolin-6-carboxylate acid methylamide] | 2.93 | 100 | 63.1 | 18.1 | 93.1 | 15.4 | 31.2 | > 1000 | – | – | – | – | – | – | – | –
9 | COc1cc2nccc(Oc3ccc(NC(=O)Nc4cc(C(C)(C)C)no4)c(Cl)c3)c2cc1C(N)=O [Compound 13, 4-{4-[3-(3-tert-butyl-isoxazol-5-yl)-ureido]-3-chloro-phenoxy}-7-methoxyquinolin-6-carboxamide] | 0.84 | 5.46 | 0.86 | 5.41 | 6.61 | 9.74 | 3.19 | 252 | – | – | – | – | – | – | – | –
10 | CCn1nc(C(C)(C)C)cc1NC(=O)Nc1ccc(Oc2ccnc3cc(OC)c(C(N)=O)cc23)cc1Cl [Compound 27, 4-{4-[3-(5-tert-butyl-2-ethyl-2H-pyrazol-3-yl)-ureido]-3-chloro-phenoxy}-7-methoxyquinolin-6-carboxamide] | 0.12 | 8.44 | 9.03 | 3.92 | 11.6 | 9.2 | 9.23 | 351 | – | – | – | – | – | – | – | –
11 | CNC(=O)c1cc2c(Oc3ccc(NC(=O)Nc4cc(C(C)(C)C)n[nH]4)c(Cl)c3)ccnc2cc1OCCOC [Compound 58, 4-{4-[3-(5-tert-butyl-2H-pyrazol-3-yl)-ureido]-3-chloro-phenoxy}-7-(2-methoxy-ethoxy)-quinolin-6-carboxylic acid methylamide] | 0.58 | 10.3 | 5.5 | 2.33 | 18.2 | 14.8 | 3.11 | 417 | – | – | – | – | – | – | – | –
12 | COc1cc2nccc(Oc3ccc(NC(=O)Nc4cc(C(C)(C)C)nn4CCO)c(Cl)c3)c2cc1C(N)=O [Compound 32, 4-(4-{3-[5-tert-butyl-2-(2-hydroxy-ethyl)-2H-pyrazol-3-yl]-ureido}-3-chloro-phenoxy)-7-methoxyquinolin-6-carboxamide] | 0.18 | 132 | 35.8 | 17.1 | 56.6 | 73.2 | 163 | 736 | – | – | – | – | – | – | – | –
13 | CNC(=O)c1cc2c(Oc3ccc(NC(=O)Nc4cc(C(C)(C)C)nn4C)c(Cl)c3Cl)ccnc2cc1OCCOC [Compound 60, 4-{4-[3-(5-tert-butyl-2-methyl-2H-pyrazol-3-yl)-ureido]-2,3-dichloro-phenoxy}-7-(2-methoxy-ethoxy)-quinolin-6-carboxylic acid methylamide] | 0.36 | 0.493 | 1.31 | 0.89 | 5.2 | 6.71 | 1.05 | 12.4 | – | – | – | – | – | – | – | –
14 | COc1cc2nccc(Oc3ccc(NC(=O)Nc4cc(C(C)(C)C)on4)c(Cl)c3)c2cc1C#N [Compound 19, 1-(5-tert-butyl-isoxazol-3-yl)-3-[2-chloro-4-(6-cyano-7-methoxy-quinolin-4-yloxy)-phenyl]-urea] | 46.8 | 131 | 788 | 632 | > 1000 | 172 | 150 | > 1000 | – | – | – | – | – | – | – | –
15 | CCC(=O)N1CCC(NC(=O)Nc2ccc(Oc3ccnc4cc(OC)c(C(N)=O)cc34)cc2Cl)C1 (stereo not drawn) [Compound 69, 4-{3-chloro-4-[3-(1-propionyl-pyrrolidin-3-yl)-ureido]-phenoxy}-7-methoxyquinolin-6-carboxamide] | > 1000 | > 1000 | > 1000 | > 1000 | > 1000 | > 1000 | > 1000 | > 1000 | – | – | – | – | – | – | – | –
